The subject of the assay is P388 leukemia ip, CD2F1 mice, survival T/C. Nature of the assay: NCI In Vivo Anticancer Drug Screen. Data for tumor model P388 Leukemia (intraperitoneal) in CD2F1 (CDF1) mice. Particulars: endpoint: median survival time, higher = longer survival. The essentials:
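Mice carrying the transplanted tumor received test compound or vehicle. Survival was recorded in each group, and the value is the treated-group measurement divided by that of the vehicle-treated control group.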

The mark [1] stands for this setting: dose: 50.0 mg/kg/injection, schedule: Q01DX005 (ip), vehicle: saline with Tween-80.
[2] abbreviates: dose: 100.0 mg/kg/injection, schedule: Q01DX005 (ip), vehicle: saline with Tween-80.
The mark [3] stands for this setting: dose: 200.0 mg/kg/injection, schedule: Q01DX005 (ip), vehicle: saline with Tween-80.
[4] abbreviates: dose: 6.25 mg/kg/injection, schedule: Q01DX009 (ip), vehicle: saline with Tween-80.
Setting [5] is: dose: 12.5 mg/kg/injection, schedule: Q01DX009 (ip), vehicle: saline with Tween-80.

Where “and” joins values, the source holds several entries; their conditions need not be identical. Identical values can stand only once. Toxic doses and inconclusive results are not listed.

As for `c1cc(Oc2ccc3ccncc3c2)c2ccncc2c1`, the T/C is, setting by setting: (dose: 100.0 mg/kg/injection, schedule: Q01DX001 (ip), vehicle: saline with Tween-80) 100 % of control; (dose: 200.0 mg/kg/injection, schedule: Q01DX001 (ip), vehicle: saline with Tween-80) 100 % of control; (dose: 400.0 mg/kg/injection, schedule: Q01DX001 (ip), vehicle: saline with Tween-80) 95 % of control.
As to `COc1ccc(S(N)(=O)=O)cc1[N+](=O)[O-]`, the T/C is, setting by setting: (dose: 100.0 mg/kg/injection, schedule: Q04DX003 (ip), vehicle: Klucel (hydroxypropylcellulose) (HPC)) 97 % of control; (dose: 200.0 mg/kg/injection, schedule: Q04DX003 (ip), vehicle: Klucel (hydroxypropylcellulose) (HPC)) 104 % of control; (dose: 400.0 mg/kg/injection, schedule: Q04DX003 (ip), vehicle: Klucel (hydroxypropylcellulose) (HPC)) 97 % of control.
In the case of `CC1=C(S(=O)(=O)c2ccccc2)C(c2ccccc2)N(C)O1` (stereo not given), the T/C reads like this: (dose: 60.0 mg/kg/injection, schedule: Q01DX005 (ip), vehicle: Klucel (hydroxypropylcellulose) (HPC)) 102 % of control; (dose: 120.0 mg/kg/injection, schedule: Q01DX005 (ip), vehicle: Klucel (hydroxypropylcellulose) (HPC)) 103 % of control; (dose: 240.0 mg/kg/injection, schedule: Q01DX005 (ip), vehicle: Klucel (hydroxypropylcellulose) (HPC)) 98 % of control.
Consider `O=C(O)CSc1cc2c3ccccc3sc2c2ccccc12`, for which the T/C by setting is: (dose: 40.0 mg/kg/injection, schedule: Q01DX005 (ip), vehicle: Klucel (hydroxypropylcellulose) (HPC)) 100 % of control; (dose: 80.0 mg/kg/injection, schedule: Q01DX005 (ip), vehicle: Klucel (hydroxypropylcellulose) (HPC)) 107 % of control; (dose: 160.0 mg/kg/injection, schedule: Q01DX005 (ip), vehicle: Klucel (hydroxypropylcellulose) (HPC)) 106 % of control.
With `CC1N=NNN1C` (stereo not given), the T/C runs as follows: under setting [1], 109 % of control; under setting [2], 109 % of control; under setting [3], 100 % of control.
Consider `CC1C(=O)OC2C1CCC1(C)C=CC(=O)C(C)C21` (stereo not given), for which the T/C reads like this: (dose: 12.5 mg/kg/injection, schedule: Q04DX002 (ip), vehicle: saline with Tween-80) 110 % of control; (dose: 25.0 mg/kg/injection, schedule: Q04DX002 (ip), vehicle: saline with Tween-80) 103 % of control.
Consider `O=[N+]([O-])c1cnc(/C=[N+](\[O-])C2CCCCC2)n1CCO`, for which the T/C (dose: 50.0 mg/kg/injection, schedule: Q01DX009 (ip), vehicle: saline) was 98 % of control; the T/C (dose: 100.0 mg/kg/injection, schedule: Q01DX009 (ip), vehicle: saline) is 100 % of control; the T/C (dose: 200.0 mg/kg/injection, schedule: Q01DX009 (ip), vehicle: saline) was 102 % of control.
As for `CS(=O)(=O)OCCN1C(=O)CNC1=O`, the T/C reads like this: (dose: 12.5 mg/kg/injection, schedule: Q04DX003 (ip), vehicle: saline) 99 % of control; (dose: 25.0 mg/kg/injection, schedule: Q04DX003 (ip), vehicle: saline) 106 % of control; (dose: 50.0 mg/kg/injection, schedule: Q04DX003 (ip), vehicle: saline) 99 % of control; (dose: 100.0 mg/kg/injection, schedule: Q04DX003 (ip), vehicle: saline) 101 % of control; (dose: 200.0 mg/kg/injection, schedule: Q04DX003 (ip), vehicle: saline) 101 % of control; (dose: 400.0 mg/kg/injection, schedule: Q04DX003 (ip), vehicle: saline) 99 % of control.
For `CCN(CC)CCCNc1cc(C)nc2c1ccc1c2ccc2c(NCCCN(CC)CC)cc(C)nc21`, the T/C was 105 % of control (dose: 12.5 mg/kg/injection, schedule: Q01DX009 (ip), vehicle: water); 103 % of control (dose: 25.0 mg/kg/injection, schedule: Q01DX009 (ip), vehicle: water); 116 % of control (dose: 50.0 mg/kg/injection, schedule: Q01DX009 (ip), vehicle: water).
Regarding `C(=N\NC1=NCCN1)/c1ccncc1`, the T/C reads like this: (dose: 50.0 mg/kg/injection, schedule: Q01DX005 (ip), vehicle: saline) 100 % of control; (dose: 100.0 mg/kg/injection, schedule: Q01DX005 (ip), vehicle: saline) 94 % of control.
Take `Cn1c2c(c(=O)n(C)c1=O)CN(Cc1ccccc1)CN2`: the T/C by setting is: under setting [1], 95 % of control; under setting [2], 95 % of control; under setting [3], 100 % of control.
Turning to `COc1ccccc1NC(=O)N(CCCl)N=O`, the T/C is, setting by setting: (dose: 3.0 mg/kg/injection, schedule: Q04DX003 (ip), vehicle: saline with Tween-80) 154 % of control; (dose: 6.0 mg/kg/injection, schedule: Q04DX003 (ip), vehicle: saline with Tween-80) 168 % of control; under setting [4], 163 % of control; (dose: 6.25 mg/kg/injection, schedule: Q04DX003 (ip), vehicle: saline with Tween-80) 168 % of control; under setting [5], 200 % of control; (dose: 12.5 mg/kg/injection, schedule: Q04DX003 (ip), vehicle: saline with Tween-80) 190 % of control. The T/C is 152 % of control (dose: 16.5 mg/kg/injection, schedule: Q04DX003 (ip), vehicle: saline with Tween-80); 95 % of control (dose: 25.0 mg/kg/injection, schedule: Q01DX009 (ip), vehicle: saline with Tween-80); 272 % of control (dose: 25.0 mg/kg/injection, schedule: Q04DX003 (ip), vehicle: saline with Tween-80); 123 % of control (dose: 37.5 mg/kg/injection, schedule: Q04DX003 (ip), vehicle: saline with Tween-80).
For `CC(=O)NC1C([Se][As](C)C)OC(COC(C)=O)C(OC(C)=O)C1OC(C)=O` (stereo not given), the T/C was 122 % of control under setting [4] and 116 % of control under setting [5].
With `COc1cc2c(OC)cc1CCCC(=O)CCCc1cc(OC)c(cc1OC)CCCC(=O)CCC2`, the T/C was 100 % of control under setting [1], 98 % of control under setting [2] and 92 % of control under setting [3].
In the case of `CC([NH-])C[NH-].[Cl][Pt+2][Cl]` (stereo not given), the T/C reads like this: (dose: 3.12 mg/kg/injection, schedule: Q01DX001 (ip), vehicle: Klucel (hydroxypropylcellulose) (HPC)) 157 % of control; (dose: 12.5 mg/kg/injection, schedule: Q01DX001 (ip), vehicle: Klucel (hydroxypropylcellulose) (HPC)) 163 % of control.
For `O=C(/C=C/c1ccccc1)Oc1ccccc1[N+](=O)[O-]`, the T/C (dose: 100.0 mg/kg/injection, schedule: Q01DX001 (ip), vehicle: Klucel (hydroxypropylcellulose) (HPC)) was 92 % of control; the T/C (dose: 200.0 mg/kg/injection, schedule: Q01DX001 (ip), vehicle: Klucel (hydroxypropylcellulose) (HPC)) was 93 % of control; the T/C (dose: 400.0 mg/kg/injection, schedule: Q01DX001 (ip), vehicle: Klucel (hydroxypropylcellulose) (HPC)) is 92 % of control.
As for `O=C(NO)/C(CC(=O)c1cccc(O)c1)=N\O`, the T/C by setting is: (dose: 60.0 mg/kg/injection, schedule: Q01DX005 (ip), vehicle: saline) 99 % of control; (dose: 120.0 mg/kg/injection, schedule: Q01DX005 (ip), vehicle: saline) 100 % of control; (dose: 240.0 mg/kg/injection, schedule: Q01DX005 (ip), vehicle: saline) 105 % of control.
Turning to `N/C(=N\N=C\c1cccnc1)SCCCCBr`, the T/C (dose: 0.78 mg/kg/injection, schedule: Q01DX001 (ip), vehicle: saline) is 100 % of control; the T/C (dose: 0.78 mg/kg/injection, schedule: Q01DX009 (ip), vehicle: saline) was 110 % of control; the T/C (dose: 1.56 mg/kg/injection, schedule: Q01DX001 (ip), vehicle: saline) was 101 % of control and 110 % of control; the T/C (dose: 3.12 mg/kg/injection, schedule: Q01DX001 (ip), vehicle: saline) was 110 % of control.
Regarding `CCCCCCC(/C=C/c1ccccc1Cl)=N\O`, the T/C is 92 % of control (dose: 50.0 mg/kg/injection, schedule: Q01DX009 (ip), vehicle: Klucel (hydroxypropylcellulose) (HPC)); 100 % of control (dose: 100.0 mg/kg/injection, schedule: Q01DX009 (ip), vehicle: Klucel (hydroxypropylcellulose) (HPC)); 105 % of control (dose: 200.0 mg/kg/injection, schedule: Q01DX009 (ip), vehicle: Klucel (hydroxypropylcellulose) (HPC)).
As for `COc1ccc(C(=O)c2c(OC)cccc2C(=O)O)cc1`, the T/C is, setting by setting: (dose: 50.0 mg/kg/injection, schedule: Q01DX005 (ip), vehicle: Klucel (hydroxypropylcellulose) (HPC)) 105 % of control; (dose: 100.0 mg/kg/injection, schedule: Q01DX005 (ip), vehicle: Klucel (hydroxypropylcellulose) (HPC)) 105 % of control; (dose: 200.0 mg/kg/injection, schedule: Q01DX005 (ip), vehicle: Klucel (hydroxypropylcellulose) (HPC)) 97 % of control.
For the molecule `Cc1cc(O)c(C)c(C(=O)O)c1`, the T/C reads like this: (dose: 50.0 mg/kg/injection, schedule: Q01DX009 (ip), vehicle: saline with Tween-80) 99 % of control; (dose: 100.0 mg/kg/injection, schedule: Q01DX009 (ip), vehicle: saline with Tween-80) 99 % of control; (dose: 200.0 mg/kg/injection, schedule: Q01DX009 (ip), vehicle: saline with Tween-80) 92 % of control.

Source of the values: PubChem BioAssay AID330 (DTP/NCI, 2004).
